Measurements as given in ChEMBL document CHEMBL3045630, “Predictive QSAR modeling on tetrahydropyrimidine-2-one derivatives as HIV-1 protease enzyme inhibitors” (Med Chem Res, 2013).

target: Protease (Human immunodeficiency virus 1, UniProt Q9YQ12); test: Inhibition of Human immunodeficiency virus 1 protease
Sequence (Q9YQ12 whole entry): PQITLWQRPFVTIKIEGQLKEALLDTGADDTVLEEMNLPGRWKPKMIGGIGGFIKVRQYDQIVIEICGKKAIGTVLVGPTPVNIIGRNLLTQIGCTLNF

In order of rising Ki:
1. N/C(=N/O)c1cccc(CN2C(=O)N(Cc3cccc(/C(N)=N\O)c3)C(Cc3ccc(F)c(F)c3)C(O)C2CCc2ccc(F)c(F)c2)c1 (centres undefined)  0.01 nM
2. N/C(=N/O)c1cccc(CN2C(=O)N(Cc3cccc(/C(N)=N\O)c3)C(Cc3ccc(F)cc3)C(O)C2CCc2ccc(F)cc2)c1 (centres undefined)  0.02 nM
3. Nc1n[nH]c2ccc(CN3C(=O)N(Cc4ccc5[nH]nc(N)c5c4)C(Cc4ccccc4)C(O)C3CCc3ccccc3)cc12 (centres undefined)  0.0302 nM
4. CN1C=CSC1C(=O)Nc1cccc(CN2C(=O)N(Cc3cccc(NC(=O)C4SC=CN4C)c3)C(Cc3ccccc3)C(O)C2CCc2ccccc2)c1 (centres undefined)  0.0302 nM
5. N/C(=N/O)c1cc(CN2C(=O)N(Cc3ccc(F)c(/C(N)=N\O)c3)C(Cc3ccc(F)c(F)c3)C(O)C2CCc2ccccc2)ccc1F (centres undefined)  0.0603 nM
6. O=C1N(Cc2ccc3[nH]ncc3c2)C(CCc2ccccc2)C(O)C(Cc2ccccc2)N1Cc1ccc2[nH]ncc2c1 (centres undefined)  0.0603 nM
7. NC(=O)c1cccc(CN2C(=O)N(Cc3cccc(N)c3)C(Cc3ccccc3)C(O)C2CCc2ccccc2)c1 (centres undefined)  0.0603 nM
8. Cc1ccc(C(=O)Nc2cccc(CN3C(=O)N(Cc4cccc(NC(=O)c5ccc(C)cn5)c4)C(Cc4ccccc4)C(O)C3CCc3ccccc3)c2)nc1 (centres undefined)  0.0794 nM
9. Nc1cccc(CN2C(=O)N(Cc3ccc4cn[nH]c4c3)C(Cc3ccccc3)C(O)C2CCc2ccccc2)c1 (centres undefined)  0.0794 nM
10. NC(=O)c1cccc(CN2C(=O)N(Cc3cccc(C(N)=O)c3)C(Cc3ccccc3)C(O)C2CCc2ccccc2)c1 (centres undefined)  0.0891 nM
11. O=C1N(Cc2cccc(-n3cccn3)c2)C(CCc2ccccc2)C(O)C(Cc2ccccc2)N1Cc1cccc(-n2cccn2)c1 (centres undefined)  0.1 nM
12. Cc1n[nH]c2ccc(CN3C(=O)N(Cc4ccc5[nH]nc(C)c5c4)C(Cc4ccccc4)C(O)C3CCc3ccccc3)cc12 (centres undefined)  0.1 nM
13. Nc1cccc(CN2C(=O)N(Cc3ccc4c(N)n[nH]c4c3)C(CCc3ccccc3)C(O)C2Cc2ccccc2)c1 (centres undefined)  0.1 nM
14. Cc1n[nH]c2cc(CN3C(=O)N(Cc4cccc(N)c4)C(Cc4ccccc4)C(O)C3CCc3ccccc3)ccc12 (centres undefined)  0.129 nM
15. NC(=O)c1cccc(CN2C(=O)N(Cc3cccc(C(N)=O)c3)C(Cc3ccc(F)c(F)c3)C(O)C2CCc2ccc(F)c(F)c2)c1 (centres undefined)  0.151 nM
16. N/C(=N/O)c1cccc(CN2C(=O)NC(CCc3ccccc3)C(O)C2Cc2ccccc2)c1 (centres undefined)  0.24 nM
17. Nc1cc(CN2C(=O)N(Cc3ccc(F)c(N)c3)C(Cc3ccccc3)C(O)C2CCc2ccccc2)ccc1F (centres undefined)  0.251 nM
18. Nc1n[nH]c2ccc(CN3C(=O)N(Cc4ccccc4)C(CCc4ccccc4)C(O)C3Cc3ccccc3)cc12 (centres undefined)  0.282 nM
19. NC(=O)c1cccc(CN2C(=O)N(Cc3cccc(C(N)=O)c3)C(Cc3ccc(F)cc3)C(O)C2CCc2ccc(F)cc2)c1 (centres undefined)  0.309 nM
20. Cc1n[nH]c2ccc(CN3C(=O)NC(CCc4ccccc4)C(O)C3Cc3ccccc3)cc12 (centres undefined)  0.38 nM
21. Nc1n[nH]c2cc(CN3C(=O)N(Cc4ccccc4)C(Cc4ccccc4)C(O)C3CCc3ccccc3)ccc12 (centres undefined)  0.646 nM
22. CC(=O)c1cccc(CN2C(=O)N(Cc3cccc(C(C)=O)c3)C(Cc3ccccc3)C(O)C2CCc2ccccc2)c1 (centres undefined)  0.912 nM
23. O=C1NC(CCc2ccccc2)C(O)C(Cc2ccccc2)N1Cc1ccc2[nH]ncc2c1 (centres undefined)  1.2 nM
24. N/C(=N/O)c1cc(CN2C(=O)NC(CCc3ccccc3)C(O)C2Cc2ccccc2)ccc1F (centres undefined)  1.41 nM
25. N#Cc1cccc(CN2C(=O)N(Cc3cccc(N)c3)C(Cc3ccccc3)C(O)C2CCc2ccccc2)c1 (centres undefined)  1.58 nM
26. Nc1cccc(CN2C(=O)N(Cc3cccc(N)c3)C(Cc3ccccc3)C(O)C2CCc2ccccc2)c1 (centres undefined)  1.7 nM
27. NC(=O)c1cccc(CN2C(=O)NC(CCc3ccccc3)C(O)C2Cc2ccccc2)c1 (centres undefined)  5.62 nM
28. Nc1cccc(CN2C(=O)NC(Cc3ccccc3)C(O)C2CCc2ccccc2)c1 (centres undefined)  6.17 nM
29. Nc1ccc(CN2C(=O)N(Cc3ccc(N)c(F)c3)C(Cc3ccccc3)C(O)C2CCc2ccccc2)cc1F (centres undefined)  7.94 nM
30. N#Cc1cccc(CN2C(=O)N(Cc3cccc(C#N)c3)C(Cc3ccccc3)C(O)C2CCc2ccccc2)c1 (centres undefined)  11 nM
31. O=C1N(Cc2cccc(CO)c2)C(Cc2ccccc2)C(O)C(C(Br)Cc2ccccc2)N1Cc1cccc(CO)c1 (centres undefined)  11 nM
32. O=C1N(Cc2cccc(O)c2)C(Cc2ccccc2)C(O)C(C(F)Cc2ccccc2)N1Cc1cccc(O)c1 (centres undefined)  12 nM
33. NC(=O)c1cc(CN2C(=O)NC(CCc3ccccc3)C(O)C2Cc2ccccc2)ccc1F (centres undefined)  14.1 nM
34. N#Cc1cccc(CN2C(=O)N(Cc3cccc(C#N)c3)C(Cc3cccc(F)c3)C(O)C2CCc2ccc(F)cc2)c1 (centres undefined)  14.1 nM
35. N#Cc1cccc(CN2C(=O)NC(CCc3ccccc3)C(O)C2Cc2ccccc2)c1 (centres undefined)  15.1 nM
36. O=C1N(Cc2ccccc2)C(CCc2ccccc2)C(O)C(Cc2ccccc2)N1Cc1ccccc1 (centres undefined)  15.1 nM
37. CNc1cccc(CN2C(=O)N(Cc3cccc(NC)c3)C(Cc3ccccc3)C(O)C2CCc2ccccc2)c1 (centres undefined)  22.9 nM
38. N#Cc1cc(CN2C(=O)N(Cc3ccccc3)C(Cc3ccccc3)C(O)C2CCc2ccccc2)ccc1F (centres undefined)  33.1 nM
39. N#Cc1cc(CN2C(=O)N(Cc3ccccc3)C(CCc3ccccc3)C(O)C2Cc2ccccc2)ccc1F (centres undefined)  39.8 nM
40. O=C1NC(Cc2ccccc2)C(O)C(CCc2ccccc2)N1Cc1ccc2cn[nH]c2c1 (centres undefined)  43.7 nM
41. O=C1NC(CCc2ccccc2)C(O)C(Cc2ccccc2)N1Cc1ccccc1 (centres undefined)  66.1 nM
42. N#Cc1cc(CN2C(=O)NC(CCc3ccccc3)C(O)C2Cc2ccccc2)ccc1F (centres undefined)  110 nM
43. Nc1cccc(CN2C(=O)NC(CCc3ccccc3)C(O)C2Cc2ccccc2)c1 (centres undefined)  158 nM
44. O=C1N(Cc2ccccc2)C(Cc2ccccc2)C(O)C(C(Br)Cc2ccccc2)N1Cc1ccccc1 (centres undefined)  186 nM
